The source of these data is US10508104B2, “6-hydroxy-5-(phenyl/heteroarylsulfonyl)pyrimidin-4(1H)-one as APJ agonists” (Bristol-Myers Squibb Company, priority 2016, dated 2019).

In general, EC50 refers to the concentration that produces a half-maximal response.

Like-named read-outs stand apart in the source and are kept apart here.

This assay concerns the target human APJ receptor (Homo sapiens (Human), UniProt P35414). Description: Intracellular cAMP accumulation assay (APJ hcAMP, HTRF). Format: cell-based. Conditions: read-out: Human APJ cAMP EC50 Potency range. Summed up:
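HEK293 cells stably expressing human APJ, 5,000 per well, incubated 30 min at rt with compound, […] and 2 μM forskolin. cAMP measured by HTRF against a cAMP standard curve as inhibition of forskolin-driven production. EC50 from variable-slope sigmoidal fit.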

Where [1] appears, read: human APJ, intracellular cAMP accumulation.
The mark [2] stands for this setting: HEK293 cells stably expressing human APJ receptor, inhibition of forskolin-mediated cAMP production.

Sequence of human APJ receptor (P35414 whole entry): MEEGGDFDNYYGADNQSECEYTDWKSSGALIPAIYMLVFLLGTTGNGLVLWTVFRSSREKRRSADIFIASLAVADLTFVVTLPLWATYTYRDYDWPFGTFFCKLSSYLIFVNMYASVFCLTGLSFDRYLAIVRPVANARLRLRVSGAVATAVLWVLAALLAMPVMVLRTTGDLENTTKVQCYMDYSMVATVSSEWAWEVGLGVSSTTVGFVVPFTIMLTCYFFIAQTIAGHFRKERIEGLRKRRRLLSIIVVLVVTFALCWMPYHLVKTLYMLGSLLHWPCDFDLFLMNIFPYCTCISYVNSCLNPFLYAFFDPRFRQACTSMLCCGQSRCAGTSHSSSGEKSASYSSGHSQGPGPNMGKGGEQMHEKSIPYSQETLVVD

For `CCCCc1nc(=O)c(S(=O)(=O)c2ccc(-c3nc(C(=O)OCC)co3)cc2)c(O)n1-c1c(OC)cccc1OC` [Example 83, ethyl 2-(4-{[2-butyl-1-(2,6-dimethoxyphenyl)-6-hydroxy-4-oxo-1,4-dihydropyrimidin-5-yl]sulfonyl}phenyl)-1,3-oxazole-4-carboxylate], under setting [1], the EC50 lay in the range of 0.01 to 10 nM.
As to `CCCCc1nc(=O)c(S(=O)(=O)c2ccc(-c3nc(C(=O)OC)c(C)s3)cc2)c(O)n1-c1c(OC)cccc1OC` [Example 84, methyl 2-(4-{[2-butyl-1-(2,6-dimethoxyphenyl)-6-hydroxy-4-oxo-1,4-dihydropyrimidin-5-yl]sulfonyl}phenyl)-5-methyl-1,3-thiazole-4-carboxylate], the EC50 under setting [1] is 0.01 to 10 nM.
For the compound `CCCCc1nc(=O)c(S(=O)(=O)c2ccc(C3CC3)cc2)c(O)n1-c1c(OC)cccc1OC` [Example 85, 2-Butyl-5-((4-cyclopropylphenyl)sulfonyl)-1-(2,6-dimethoxyphenyl)-6-hydroxypyrimidin-4(1H)-one], under setting [2], the EC50 was 0.01 to 10 nM.
For `COc1cccc(OC)c1-n1c(C2CCCC2)nc(=O)c(S(=O)(=O)c2ccc(C3CC3)cc2)c1O` [Example 86, 2-cyclopentyl-5-(4-cyclopropylbenzene-sulfonyl)-1-(2,6-dimethoxyphenyl)-6-hydroxy-1,4-dihydropyrimidin-4-one], the EC50 under setting [1] was in the range of 0.01 to 10 nM.
The same measure, in the same setting: in the case of `CCCCc1nc(=O)c(S(=O)(=O)c2ccc(C3CC3)cc2)c(O)n1-c1c(CC)cccc1CC` [Example 87, 2-butyl-5-(4-cyclopropylbenzene-sulfonyl)-1-(2,6-diethylphenyl)-6-hydroxy-1,4-dihydropyrimidin-4-one] it was 0.01 to 10 nM; in that of `CCOCc1nc(=O)c(S(=O)(=O)c2ccc(C3CC3)cc2)c(O)n1-c1c(CC)cccc1CC` [Example 88, 5-(4-cyclopropylbenzene-sulfonyl)-1-(2,6-diethylphenyl)-2-(ethoxymethyl)-6-hydroxy-1,4-dihydropyrimidin-4-one], 0.01 to 10 nM.
For the compound `CCCCc1nc(=O)c(S(=O)(=O)c2ccc(C(=O)O)cc2)c(O)n1-c1c(OC)cccc1OC` [Example 89, 4-((2-Butyl-1-(2,6-dimethoxyphenyl)-6-hydroxy-4-oxo-1,4-dihydropyrimidin-5-yl)sulfonyl)benzoic Acid], the EC50 under setting [2] lay in the range of 0.01 to 10 nM.
Turning to `CCCCc1nc(=O)c(S(=O)(=O)c2ccc(C(=O)NCC(F)(F)F)cc2)c(O)n1-c1c(OC)cccc1OC` [Example 90, 4-((2-Butyl-1-(2,6-dimethoxyphenyl)-6-hydroxy-4-oxo-1,4-dihydropyrimidin-5-yl)sulfonyl)-N-(2,2,2-trifluoroethyl)benzamide], the EC50 under setting [2] lay in the range of 0.01 to 10 nM.
For the compound `CCCCc1nc(=O)c(S(=O)(=O)c2ccc(C(=O)NC3CC3)cc2)c(O)n1-c1c(OC)cccc1OC` [Example 91, 4-{[2-butyl-1-(2,6-dimethoxyphenyl)-6-hydroxy-4-oxo-1,4-dihydropyrimidin-5-yl]suffonyl}-N-cyclopropylbenzamide], the EC50 under setting [1] is 0.01 to 10 nM.
On to `CCCCc1nc(=O)c(S(=O)(=O)c2ccc(C(=O)NC)cc2)c(O)n1-c1c(OC)cccc1OC` [Example 92, 4-{[2-butyl-1-(2,6-dimethoxyphenyl)-6-hydroxy-4-oxo-1,4-dihydropyrimidin-5-yl]sulfonyl}-N-methylbenzamide], for which the EC50 under setting [1] lay within 0.01 to 10 nM.
As for `CCCCc1nc(=O)c(S(=O)(=O)c2ccc(C(=O)N3CC(F)(F)C3)cc2)c(O)n1-c1c(OC)cccc1OC` [Example 93, 2-butyl-5-[4-(3,3-difluoroazetidine-1-carbonyl)benzenesulfo-nyl]-1-(2,6-dimethoxyphenyl)-6-hydroxy-1,4-dihydropyrimidin-4-one], the EC50 under setting [1] is 0.01 to 10 nM.
Same read-out and setting: then `CCCCc1nc(=O)c(S(=O)(=O)c2ccc(C(=O)N3CC(C)(O)C3)cc2)c(O)n1-c1c(OC)cccc1OC` [Example 94, 2-butyl-1-(2,6-dimethoxyphenyl)-6-hydroxy-5-[4-(3-hydroxy-3-methylazetidine-1-carbonyl)benzenesulfo-nyl]-1,4-dihydropyrimidin-4-one], with 0.01 to 10 nM; and `CCCCc1nc(=O)c(S(=O)(=O)c2ccc(C(=O)N3CCC(F)(F)C3)cc2)c(O)n1-c1c(OC)cccc1OC` [Example 95, 2-butyl-5-[4-(3,3-difluoropyrrolidine-1-carbonyl)benzene-sulfonyl]-1-(2,6-dimethoxyphenyl)-6-hydroxy-1,4-dihydropyrimidin-4-one], with 0.01 to 10 nM; and `CCCCc1nc(=O)c(S(=O)(=O)c2ccc(C(=O)N3CCOCC3)cc2)c(O)n1-c1c(OC)cccc1OC` [Example 96, 2-butyl-1-(2,6-dimethoxyphenyl)-6-hydroxy-5-[4-(morpholine-4-carbonyl)benzenesulfo-nyl]-1,4-dihydropyrimidin-4-one], with 0.01 to 10 nM.
Consider `CCCCc1nc(=O)c(S(=O)(=O)c2ccc(C(=O)Nc3ccc(F)nc3)cc2)c(O)n1-c1c(OC)cccc1OC` [Example 97, 4-{[2-butyl-1-(2,6-dimethoxyphenyl)-6-hydroxy-4-oxo-1,4-dihydropyrimidin-5-yl]sulfonyl}-N-(6-fluoropyridin-3-yl)benzamide], for which the EC50 under setting [1] is 10 to 100 nM.
With `CCCCc1nc(=O)c(S(=O)(=O)c2ccc(Br)cn2)c(O)n1-c1c(OC)cccc1OC` [Example 98, 5-((5-Bromopyridin-2-yl)sulfonyl)-2-butyl-1-(2,6-dimethoxyphenyl)-6-hydroxypyrimidin-4(1H)-one], under setting [2], the EC50 lay in the range of 0.01 to 10 nM.
On to `COc1cccc(OC)c1-n1c(CCC(C)C)nc(=O)c(S(=O)(=O)c2ccccn2)c1O` [Example 99, 1-(2,6-dimethoxyphenyl)-6-hydroxy-2-(3-methylbutyl)-5-(pyridine-2-sulfonyl)-1,4-dihydropyrimidin-4-one], for which the EC50 under setting [1] was in the range of 0.01 to 10 nM.
Turning to `CCCCc1nc(=O)c(S(=O)(=O)c2cc(C)oc2C)c(O)n1-c1c(OC)cccc1OC` [Example 100, 2-butyl-1-(2,6-dimethoxyphenyl)-5-[(2,5-dimethylfuran-3-yl)sulfonyl]-6-hydroxy-1,4-dihydropyrimidin-4-one], the concentration giving a half-maximal response (EC50) under setting [1] was in the range of 0.01 to 10 nM.
The same measure, in the same setting: in the case of `CCCCc1nc(=O)c(S(=O)(=O)c2ccc(C3CC3)cn2)c(O)n1-c1c(OC)cccc1OC` [Example 101, 2-butyl-5-[(5-cyclopropylpyridin-2-yl)sulfonyl]-1-(2,6-dimethoxyphenyl)-6-hydroxy-1,4-dihydropyrimidin-4-one] it was 0.01 to 10 nM.
The same measure, in the same setting: in the case of `CCCCc1nc(=O)c(S(=O)(=O)c2ccc(C3CC3)cn2)c(O)n1-c1c(CC)cccc1CC` [Example 102, 2-butyl-5-[(5-cyclopropylpyridin-2-yl)sulfonyl]-1-(2,6-diethylphenyl)-6-hydroxy-1,4-dihydropyrimidin-4-one] it was 0.01 to 10 nM; in that of `CCCCc1nc(=O)c(S(=O)(=O)c2ccc(-c3ccc(F)cc3)cn2)c(O)n1-c1c(OC)cccc1OC` [Example 103, 2-butyl-1-(2,6-dimethoxyphenyl)-5-{[5-(4-fluorophenyl)pyridin-2-yl]sulfonyl}-6-hydroxy-1,4-dihydropyrimidin-4-one], 0.01 to 10 nM; in that of `CCCCc1nc(=O)c(S(=O)(=O)c2ccc(C)cn2)c(O)n1-c1c(CC)cccc1CC` [Example 104, 2-butyl-1-(2,6-diethylphenyl)-6-hydroxy-5-[(5-methylpyridin-2-yl)sulfonyl]-1,4-dihydropyrimidin-4-one], 0.01 to 10 nM.
`CCCCc1nc(=O)c(S(=O)(=O)C2CCN(C(=O)OC(C)(C)C)CC2)c(O)n1-c1c(OC)cccc1OC` [Example 105, tert-Butyl 4-((2-butyl-1-(2,6-dimethoxyphenyl)-6-hydroxy-4-oxo-1,4-dihydropyrimidin-5-yl)sulfonyl)piperidine-1-carboxylate]: the EC50 under setting [2] lay in the range of 0.01 to 10 nM.
The same measure, in the same setting: in the case of `CCCCc1nc(=O)c(S(=O)(=O)C2CCNCC2)c(O)n1-c1c(OC)cccc1OC` [Example 106, 2-Butyl-1-(2,6-dimethoxyphenyl)-6-hydroxy-5-(piperidin-4-ylsulfonyl)pyrimidin-4(1H)-one] it was 10 to 100 nM; in that of `CCCCc1nc(=O)c(S(=O)(=O)C2CCN(C)CC2)c(O)n1-c1c(OC)cccc1OC` [Example 107, 2-Butyl-1-(2,6-dimethoxyphenyl)-6-hydroxy-5-((1-methylpiperidin-4-yl)sulfonyl)pyrimidin-4(1H)-one], 0.01 to 10 nM.
On to `CCCCc1nc(=O)c(S(=O)(=O)C2CCN(CC)CC2)c(O)n1-c1c(OC)cccc1OC` [Example 108, 2-butyl-1-(2,6-dimethoxyphenyl)-5-[(1-ethylpiperidin-4-yl)sulfonyl]-6-hydroxy-1,4-dihydropyrimidin-4-one], for which the EC50 under setting [1] was 0.01 to 10 nM.
The same measure, in the same setting: then `CCCCc1nc(=O)c(S(=O)(=O)C2CCN(Cc3cccc(F)c3F)CC2)c(O)n1-c1c(CC)cccc1CC` [Example 109, 2-butyl-1-(2,6-diethylphenyl)-5-({1-[(2,3-difluorophenyl)methyl]piperidin-4-yl}sulfonyl)-6-hydroxy-1,4-dihydropyrimidin-4-one], with 0.01 to 10 nM.
As to `CCCCc1nc(=O)c(S(=O)(=O)C2CCN(C(=O)c3nnc(C)o3)CC2)c(O)n1-c1c(OC)cccc1OC` [Example 110, 2-Butyl-1-(2,6-dimethoxyphenyl)-6-hydroxy-5-((1-(5-methyl-1,3,4-oxadiazole-2-carbonyl)piperidin-4-yl)sulfonyl)pyrimidin-4(1H)-one], under setting [2], the EC50 lay in the range of 0.01 to 10 nM.
For `CCCCc1nc(=O)c(S(=O)(=O)C2CCN(C(=O)c3ccccc3)CC2)c(O)n1-c1c(OC)cccc1OC` [Example 111, 5-[(1-benzoylpiperidin-4-yl)sulfonyl]-2-butyl-1-(2,6-dimethoxyphenyl)-6-hydroxy-1,4-dihydropyrimidin-4-one], under setting [1], the EC50 fell in the range of 0.01 to 10 nM.
Still for that read-out and setting: in the case of `CCCCc1nc(=O)c(S(=O)(=O)C2CCN(C(=O)c3ccc(Cl)cc3)CC2)c(O)n1-c1c(OC)cccc1OC` [Example 112, 2-butyl-5-{[1-(4-chlorobenzoyl)piperidin-4-yl]sulfonyl}-1-(2,6-dimethoxyphenyl)-6-hydroxy-1,4-dihydropyrimidin-4-one] it was 0.01 to 10 nM.
